Source: patent US20240018145A1, “[…]-DEPENDENT EN[…] TREATING OR […]” (priority 2020, published 2024)
pEC50: −log10 of the molar value.

system: FLU A (PR/8/34); experiment: Flu A Neuraminidase Antiviral Assay; type: cell-based; details: not given

| Structure (SMILES) | pEC50 |
| --- | --- |
| CN1C(=O)c2c(O)c(=O)ccn2N2C(c3ccccc3)C(CCC(F)(F)F)CCC12 (single isomer, unassigned) [Compound 128A, 7-hydroxy-5-methyl-1-phenyl-2-(3,3,3-trifluoropropyl)-1,2,3,4,4a,5-hexahydrodipyrido[1,2-b:2′,1′-f][1,2,4]triazine-6,8-dione] | 6.10 |
| CN1C(=O)c2c(O)c(=O)ccn2N2C(c3ccccc3)C(CC(C)(F)F)CCC12 (single isomer, unassigned) [Compound 126B, 2-(2,2-difluoropropyl)-7-hydroxy-5-methyl-1-phenyl-1,2,3,4,4a,5-hexahydrodipyrido[1,2-b:2′,1′-f][1,2,4]triazine-6,8-dione] | 7.79 |
| Cc1cccc(F)c1C1C(CC(F)(F)F)CCC2N(C)C(=O)c3c(O)c(=O)ccn3N12 (single isomer, unassigned) [Compound 77C, 1-(2-fluoro-6-methylphenyl)-7-hydroxy-5-methyl-2-(2,2,2-trifluoroethyl)-1,2,3,4,4a,5-hexahydrodipyrido[1,2-b:2′,1′-f][1,2,4]triazine-6,8-dione] | < 6.09 |
| CN1C(=O)c2c(O)c(=O)ccn2N2C(c3ccccc3)C(CC(C)(F)F)CCC12 (single isomer, unassigned) [Compound 126A, 2-(2,2-difluoropropyl)-7-hydroxy-5-methyl-1-phenyl-1,2,3,4,4a,5-hexahydrodipyrido[1,2-b:2′,1′-f][1,2,4]triazine-6,8-dione] | < 5.09 |
| COc1ccccc1C1CCCC2N(C)C(=O)c3c(O)c(=O)ccn3N12 (single isomer, unassigned) [Compound 19B, 7-hydroxy-1-(2-methoxyphenyl)-5-methyl-1,2,3,4,4a,5-hexahydrodipyrido[1,2-b:2′,1′-f][1,2,4]triazine-6,8-dione] | 6.46 |
| CN1C(=O)c2c(O)c(=O)ccn2N2C(c3ccccc3)C(CC(F)(F)F)CCC12C (single isomer, unassigned) [Compound 111A, 7-hydroxy-4a,5-dimethyl-1-phenyl-2-(2,2,2-trifluoroethyl)-1,2,3,4,4a,5-hexahydrodipyrido[1,2-b:2′,1′-f][1,2,4]triazine-6,8-dione] | < 5.09 |
| CN1C(=O)c2c(O)c(=O)ccn2N2C(c3ccccc3)C(Cc3ccccc3)CCC12 (single isomer, unassigned) [Compound 117B, 2-benzyl-7-hydroxy-5-methyl-1-phenyl-1,2,3,4,4a,5-hexahydrodipyrido[1,2-b:2′,1′-f][1,2,4]triazine-6,8-dione] | 6.95 |
| Cc1ccccc1C1C(c2ccc(F)c(F)c2)CCC2N(C)C(=O)c3c(O)c(=O)ccn3N12 (single isomer, unassigned) [Compound 91B, 2-(3,4-difluorophenyl)-7-hydroxy-5-methyl-1-(o-tolyl)-1,2,3,4,4a,5-hexahydrodipyrido[1,2-b:2′,1′-f][1,2,4]triazine-6,8-dione] | 8.14 |
| O=C1c2c(O)c(=O)ccn2N2C(c3ccccc3)CCCC2N1CC1CC1 (single isomer, unassigned) [Compound 56D, 5-(cyclopropylmethyl)-7-hydroxy-1-phenyl-1,2,3,4,4a,5-hexahydrodipyrido[1,2-b:2′,1′-f][1,2,4]triazine-6,8-dione] | 7.42 |

same assay, conditions: MDCK, 48 h

| Structure (SMILES) | pEC50 |
| --- | --- |
| CN1C(=O)c2c(O)c(=O)ccn2N2[C@H](c3ccccc3)[C@H](OCC3CCC3)CC[C@@H]12 [Compound 160, (1R,2R,4aS)-2-(cyclobutylmethoxy)-7-hydroxy-5-methyl-1-phenyl-1,2,3,4,4a,5-hexahydrodipyrido[1,2-b:2′,1′-f][1,2,4]triazine-6,8-dione] | 7.74 |
| CN1C(=O)c2c(O)c(=O)ccn2N2C1/C(=C/c1ccccc1)C[C@@H](O)[C@@]2(C)c1ccccc1 (stereo partly drawn) [Compound 149, (1R,2R)-4-((E)-benzylidene)-2,7-dihydroxy-1,5-dimethyl-1-phenyl-1,2,3,4,4a,5-hexahydrodipyrido[1,2-b:2′,1′-f][1,2,4]triazine-6,8-dione] | < 6.09 |
